What was measured:
[1] = tested on: stroke; settings: intravenous, up to 12 hours following stroke onset, 2589 patients (Muir et al., 2004); cited from earlier work
[2] = tested on: TBI; settings: University of Washington trial initiated in 1999, preliminary data; cited from earlier work
[3] = tested on: brain injury; test: Loss of cognitive functions (ability to learn a new spatial task) following brain injury; assay type: in vivo, animals; settings: single agent alone
From the text: The discovery of a synergistic effect between PEG, a biomembrane sealing agent, and magnesium is highly significant as it can lead to the development of therapeutic formulations with improved efficacy for the treatment of neuronal trauma, inflammatory and painful conditions.

[4] = tested on: pain; settings: Crosby et al., 2000; cited from earlier work

SMILES | clinical improvement after stroke [1] | outcome of magnesium sulfate therapy in TBI patients [2] | effect on the loss of cognitive functions following brain injury [3] | duration of analgesic effects [4] [h]
O=S(=O)([O-])[O-].[Mg+2] [magnesium sulfate] | no significant improvement | negative |  | 
[Mg+2] [magnesium] |  |  | no effect | ≤ 4

Reference: patent publication US20090263507A1, “BIOLOGICAL MARKERS AND RESPONSE TO TREATMENT FOR PAIN, INFLAMMATION, NEURONAL OR VASCULAR INJURY AND METHODS OF USE” (Warsaw Orthopedic, Inc., priority 2008, published 2009)
